The results in this text go back to US20230089867A1, “CYCLIC PENTAMER COMPOUNDS AS PROPROTEIN CONVERTASE SUBTILISIN/KEXIN TYPE 9 (PCSK9) INHIBITORS FOR THE TREATMENT OF METABOLIC DISORDER” (Novartis AG, priority 2018, published 2023).

The target of this experiment is human PCSK9 (Homo sapiens, UniProt Q8NBP7). In words: PCSK9 ligand binding TR-FRET assay (interference with binding of human PCSK9 to human LDLR). As to conditions: for Max % inhibition: PCSK9 FRET assay, efficacy (Amax), 100% = 1 uM unlabeled human PCSK9, 0% = DMSO; for IC50: TR-FRET, human PCSK9 Alexa Fluor 647 / human LDLR extracellular domain-Europium Kryptate, read-out: PCSK9 FRET Assay IC50. An outline of the steps: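 Threefold compound dilutions were pre-incubated 30 min with PCSK9, after which 4 nM Europium Kryptate-tagged human LDLR ectodomain was added for a further 2 h.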
In general terms: Time-resolved FRET reads energy transfer from a long-lived donor to a nearby acceptor.

human PCSK9, sequence (Q8NBP7 153-692): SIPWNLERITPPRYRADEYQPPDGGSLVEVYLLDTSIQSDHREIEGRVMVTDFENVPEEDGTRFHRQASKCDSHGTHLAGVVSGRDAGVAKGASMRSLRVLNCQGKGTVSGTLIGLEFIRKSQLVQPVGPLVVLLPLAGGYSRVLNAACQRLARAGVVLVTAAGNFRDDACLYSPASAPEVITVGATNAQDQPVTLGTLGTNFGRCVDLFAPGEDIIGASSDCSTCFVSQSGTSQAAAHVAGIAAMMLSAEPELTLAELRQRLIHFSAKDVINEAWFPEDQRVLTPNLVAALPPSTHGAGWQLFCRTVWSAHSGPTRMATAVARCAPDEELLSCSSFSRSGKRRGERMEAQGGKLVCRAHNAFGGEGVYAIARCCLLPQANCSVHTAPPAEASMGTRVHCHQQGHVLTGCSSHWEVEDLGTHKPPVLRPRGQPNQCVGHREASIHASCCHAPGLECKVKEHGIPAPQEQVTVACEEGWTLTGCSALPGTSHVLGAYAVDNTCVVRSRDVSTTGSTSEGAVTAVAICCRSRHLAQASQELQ
human PCSK9, sequence (Q8NBP7 31-152 partner limits assumed): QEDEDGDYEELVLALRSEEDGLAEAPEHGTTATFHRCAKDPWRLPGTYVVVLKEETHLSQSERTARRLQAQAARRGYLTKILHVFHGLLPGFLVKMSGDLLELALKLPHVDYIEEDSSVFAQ

What is called IC50 is the concentration that gives 50% inhibition. Consider `COC[C@@H]1NC(=O)[C@H](C)N(Cc2ccc(Cl)cc2Oc2ccc(-c3cnc(CN(C)C)n3C)cc2)C(=O)C[C@@H](CC(F)=C(F)F)C(=O)N(C)[C@H]2CCCC[C@@H]2NC(=O)C[C@H](Cc2ccc(Cl)cc2)N(C)C1=O` [Compound 96, (4S,7S,10S,14S,16aS,20aS)-11-(4-chloro-2-(4-(2-((dimethylamino)methyl)-1-methyl-1H-imidazol-5-yl)phenoxy)benzyl)-4-(4-chlorobenzyl)-7-(methoxymethyl)-5,10,16-trimethyl-14-(2,3,3-trifluoroallyl)hexadecahydrobenzo[l][1,4,7,11,14]pentaazacyclooctadecine-2,6,9,12,15(3H)-pentaone], for which the Max % inhibition stood at 78.14% and the IC50 is 304 nM.
For the compound `COC[C@@H]1NC(=O)[C@H](C)N(Cc2ccc(Cl)cc2Oc2ccc(-c3cnc(CN4CCCC4)n3C)cc2)C(=O)C[C@@H](Cc2ccccc2)C(=O)N(C)[C@@H](C)CNC(=O)C[C@H](Cc2ccc(Cl)cc2)NC1=O` [Compound 256, (2S,5S,8S,13S,16R)-16-benzyl-1-(4-chloro-2-(4-(1-methyl-2-(pyrrolidin-1-ylmethyl)-1H-imidazol-5-yl)phenoxy)benzyl)-8-(4-chlorobenzyl)-5-(methoxymethyl)-2,13,14-trimethyl-1,4,7,11,14-pentaazacyclooctadecane-3,6,10,15,18-pentaone], the Max % inhibition came out at 79.36% and the IC50 came out at 52.4 nM.
For `CNc1ncc(-c2ccc(Oc3cc(Cl)ccc3CN3C(=O)C[C@@H](Cc4ccccc4)C(=O)N(C)[C@@H](C)CNC(=O)C[C@H](Cc4ccc(Cl)cc4)N(C)C(=O)[C@H](COC)NC(=O)[C@@H]3C)cc2)cn1` [Compound 86, (2S,5S,8S,13S,16R)-16-benzyl-1-(4-chloro-2-(4-(2-(methylamino)pyrimidin-5-yl)phenoxy)benzyl)-8-(4-chlorobenzyl)-5-(methoxymethyl)-2,7,13,14-tetramethyl-1,4,7,11,14-pentaazacyclooctadecane-3,6,10,15,18-pentaone], in that order: 56.62% and 20.5 nM.
Consider `COC[C@@H]1NC(=O)[C@H](C)N(Cc2ccc(Cl)cc2Oc2ccc(-c3cnc([C@H](C)N(C)C)n3C)cc2)C(=O)C[C@@H](Cc2ccccc2)C(=O)N(C)[C@H]2CCCC[C@@H]2NC(=O)C[C@H](Cc2ccc(Cl)cc2)N(C)C1=O` [Compound 241, (4S,7S,10S,14R,16aS,20aS)-14-benzyl-11-(4-chloro-2-(4-(2-((S)-1-(dimethylamino)ethyl)-1-methyl-1H-imidazol-5-yl)phenoxy)benzyl)-4-(4-chlorobenzyl)-7-(methoxymethyl)-5,10,16-trimethylhexadecahydrobenzo[l][1,4,7,11,14]pentaazacyclooctadecine-2,6,9,12,15(3H)-pentaone], for which the Max % inhibition is reported as 72.66% and the IC50 was determined as 247 nM.
In the case of `COC[C@@H]1NC(=O)[C@H](C)N(Cc2c(Oc3ccc(-c4cnc(CN(C)C)n4C)cc3)cccc2OC(F)F)C(=O)C[C@@H](C)C(=O)N(C)[C@@H](C)CNC(=O)C[C@H](Cc2ccc(Cl)cc2)N(C)C1=O` [Compound 62, (5S,8S,13S,16R)-8-(4-chlorobenzyl)-1-(2-(difluoromethoxy)-6-(4-(2-((dimethylamino)methyl)-1-methyl-1H-imidazol-5-yl)phenoxy)benzyl)-5-(methoxymethyl)-2,7,13,14,16-pentamethyl-1,4,7,11,14-pentaazacyclooctadecane-3,6,10,15,18-pentaone], the Max % inhibition was 88.46% and the IC50 was determined as 16.8 nM.
Regarding `COC[C@@H]1NC(=O)[C@H](CCCN(C)C)N(Cc2ccc(Cl)cc2Oc2ccc(-c3cnc(CN(C)C)n3C)cc2)C(=O)C[C@@H](Cc2ccccc2)C(=O)N(C)[C@H]2CCCC[C@@H]2NC(=O)C[C@H](Cc2ccc(Cl)cc2)N(C)C1=O` [Compound 291, (4S,7S,10S,14R,16aS,20aS)-14-benzyl-11-(4-chloro-2-(4-(2-((dimethylamino)methyl)-1-methyl-1H-imidazol-5-yl)phenoxy)benzyl)-4-(4-chlorobenzyl)-10-(3-(dimethylamino)propyl)-7-(methoxymethyl)-5,16-dimethylhexadecahydrobenzo[l][1,4,7,11,14]pentaazacyclooctadecine-2,6,9,12,15(3H)-pentaone], the Max % inhibition turned out to be 102.86% and the IC50 was found to be 1.6 nM.
For `COC[C@@H]1NC(=O)[C@H](C)N(Cc2ccc(Cl)cc2Oc2ccc(-c3cnc(CN(C)C)n3C)cc2)C(=O)C[C@@H](Cc2c(F)ccc(F)c2F)C(=O)N(C)[C@@H](C)CNC(=O)C[C@H](Cc2ccc(Cl)cc2)N(C)C1=O` [Compound 258, (2S,5S,8S,13S,16R)-1-(4-chloro-2-(4-(2-((dimethylamino)methyl)-1-methyl-1H-imidazol-5-yl)phenoxy)benzyl)-8-(4-chlorobenzyl)-5-(methoxymethyl)-2,7,13,14-tetramethyl-16-(2,3,6-trifluorobenzyl)-1,4,7,11,14-pentaazacyclooctadecane-3,6,10,15,18-pentaone], the Max % inhibition is 98.94% and the IC50 is 4.3 nM.
For `COC[C@@H]1NC(=O)[C@H](C)N(Cc2ccc(Cl)cc2Oc2ccc(-c3cnc(CN(C)C)n3C)cc2)C(=O)CC(Cn2ccccc2=O)C(=O)N(C)[C@H]2CCCC[C@@H]2NC(=O)C[C@H](Cc2ccc(Cl)cc2)N(C)C1=O` (stereo partly drawn) [Compound 276, (4S,7S,10S,16aS,20aS)-11-(4-chloro-2-(4-(2-((dimethylamino)methyl)-1-methyl-1H-imidazol-5-yl)phenoxy)benzyl)-4-(4-chlorobenzyl)-7-(methoxymethyl)-5,10,16-trimethyl-14-((2-oxopyridin-1(2H)-yl)methyl)hexadecahydrobenzo[l][1,4,7,11,14]pentaazacyclooctadecine-2,6,9,12,15(3H)-pentaone], in that order: 101.53% and 16.4 nM.
For `COC[C@@H]1NC(=O)[C@H](C)N(Cc2c(Cl)cccc2Oc2ccc(-c3cnc(CN(C)C)n3C)cc2)C(=O)C[C@@H](C)C(=O)N(C)[C@@H](C)CNC(=O)C[C@H](Cc2ccc(Cl)cc2)N(C)C1=O` [Compound 230, (2S,5S,8S,13S,16R)-1-(2-chloro-6-(4-(2-((dimethylamino)methyl)-1-methyl-1H-imidazol-5-yl)phenoxy)benzyl)-8-(4-chlorobenzyl)-5-(methoxymethyl)-2,7,13,14,16-pentamethyl-1,4,7,11,14-pentaazacyclooctadecane-3,6,10,15,18-pentaone], in that order: 46.03% and 77.8 nM.
For `COC[C@@H]1NC(=O)[C@H](C)N(Cc2ccc(Cl)cc2Oc2ccc(-c3cnc(CN(C)C)n3C)cc2)C(=O)C[C@@H](Cc2ccccc2)C(=O)N(C)C2(CC2)CNC(=O)C[C@H](Cc2ccc(Cl)cc2)N(C)C1=O` [Compound 144, (6R,10S,13S,16S)-6-benzyl-9-(4-chloro-2-(4-(2-((dimethylamino)methyl)-1-methyl-1H-imidazol-5-yl)phenoxy)benzyl)-16-(4-chlorobenzyl)-13-(methoxymethyl)-4,10,15-trimethyl-4,9,12,15,19-pentaazaspiro[2.17]icosane-5,8,11,14,18-pentaone], in that order: 100.34% and 7 nM.
Turning to `COC[C@@H]1NC(=O)[C@H](C)N(Cc2ccc(Cl)cc2Oc2ccc(-c3cnc(CN(C)C)n3C)cc2)C(=O)CN2C[C@H](CNC(=O)C[C@H](Cc3ccc(Cl)cc3)N(C)C1=O)N(C)C2=O` [Compound 227, (5S,8S,11S,16S)-4-(4-chloro-2-(4-(2-((dimethylamino)methyl)-1-methyl-1H-imidazol-5-yl)phenoxy)benzyl)-11-(4-chlorobenzyl)-8-(methoxymethyl)-5,10,17-trimethyl-1,4,7,10,14,17-hexaazabicyclo[14.2.1]nonadecane-3,6,9,13,18-pentaone], the Max % inhibition is given as 104.70% and the IC50 stood at 8.8 nM.
Taken in the same sequence, the figures for `COC[C@@H]1NC(=O)[C@H](C)N(Cc2ccc(Cl)cc2Oc2ccc(-c3cnc4n3CCN(C(=O)[C@H]3CCOC3)C4)cc2)C(=O)C[C@@H](Cc2ccccc2)C(=O)N(C)[C@@H](C)CNC(=O)C[C@H](Cc2ccc(Cl)cc2)N(C)C1=O` [Compound 162, (2S,5S,8S,13S,16R)-16-benzyl-1-(4-chloro-2-(4-(7-((S)-tetrahydrofuran-3-carbonyl)-5,6,7,8-tetrahydroimidazo[1,2-a]pyrazin-3-yl)phenoxy)benzyl)-8-(4-chlorobenzyl)-5-(methoxymethyl)-2,7,13,14-tetramethyl-1,4,7,11,14-pentaazacyclooctadecane-3,6,10,15,18-pentaone] were 91.41% and 2.9 nM.
Taken in the same sequence, the figures for `COC[C@@H]1NC(=O)[C@H](C)N(Cc2ccc(Cl)cc2Oc2ccc(-c3cnc(C(C)N4CCCC4)n3C)cc2)C(=O)C[C@@H](C)C(=O)N(C)[C@@H](C)CNC(=O)C[C@H](Cc2ccc(Cl)cc2)N(C)C1=O` (stereo in doubt) [Compound 103, (2S,5S,8S,13S,16R)-1-(4-chloro-2-(4-(1-methyl-2-((S)-1-(pyrrolidin-1-yl)ethyl)-1H-imidazol-5-yl)phenoxy)benzyl)-8-(4-chlorobenzyl)-5-(methoxymethyl)-2,7,13,14,16-pentamethyl-1,4,7,11,14-pentaazacyclooctadecane-3,6,10,15,18-pentaone] were 106.00% and 10.1 nM.
With `COCC(=O)N1CCc2ncc(-c3ccc(Oc4cc(Cl)ccc4CN4C(=O)C[C@@H](Cc5ccccc5)C(=O)N(C)[C@@H](C)CNC(=O)C[C@H](Cc5ccc(Cl)cc5)N(C)C(=O)[C@H](COC)NC(=O)[C@@H]4C)cc3)cc2C1` [Compound 117, (2S,5S,8S,13S,16R)-16-benzyl-1-(4-chloro-2-(4-(6-(2-methoxyacetyl)-5,6,7,8-tetrahydro-1,6-naphthyridin-3-yl)phenoxy)benzyl)-8-(4-chlorobenzyl)-5-(methoxymethyl)-2,7,13,14-tetramethyl-1,4,7,11,14-pentaazacyclooctadecane-3,6,10,15,18-pentaone], the Max % inhibition was 67.25% and the IC50 was 4.2 nM.
